Our source for the IC50 values is US8410126B2, “Pyrimidine inhibitors of PKTK2” (Boehringer Ingelheim International GmbH, priority 2009, dated 2013).

T1 sequence (Q05397 whole entry): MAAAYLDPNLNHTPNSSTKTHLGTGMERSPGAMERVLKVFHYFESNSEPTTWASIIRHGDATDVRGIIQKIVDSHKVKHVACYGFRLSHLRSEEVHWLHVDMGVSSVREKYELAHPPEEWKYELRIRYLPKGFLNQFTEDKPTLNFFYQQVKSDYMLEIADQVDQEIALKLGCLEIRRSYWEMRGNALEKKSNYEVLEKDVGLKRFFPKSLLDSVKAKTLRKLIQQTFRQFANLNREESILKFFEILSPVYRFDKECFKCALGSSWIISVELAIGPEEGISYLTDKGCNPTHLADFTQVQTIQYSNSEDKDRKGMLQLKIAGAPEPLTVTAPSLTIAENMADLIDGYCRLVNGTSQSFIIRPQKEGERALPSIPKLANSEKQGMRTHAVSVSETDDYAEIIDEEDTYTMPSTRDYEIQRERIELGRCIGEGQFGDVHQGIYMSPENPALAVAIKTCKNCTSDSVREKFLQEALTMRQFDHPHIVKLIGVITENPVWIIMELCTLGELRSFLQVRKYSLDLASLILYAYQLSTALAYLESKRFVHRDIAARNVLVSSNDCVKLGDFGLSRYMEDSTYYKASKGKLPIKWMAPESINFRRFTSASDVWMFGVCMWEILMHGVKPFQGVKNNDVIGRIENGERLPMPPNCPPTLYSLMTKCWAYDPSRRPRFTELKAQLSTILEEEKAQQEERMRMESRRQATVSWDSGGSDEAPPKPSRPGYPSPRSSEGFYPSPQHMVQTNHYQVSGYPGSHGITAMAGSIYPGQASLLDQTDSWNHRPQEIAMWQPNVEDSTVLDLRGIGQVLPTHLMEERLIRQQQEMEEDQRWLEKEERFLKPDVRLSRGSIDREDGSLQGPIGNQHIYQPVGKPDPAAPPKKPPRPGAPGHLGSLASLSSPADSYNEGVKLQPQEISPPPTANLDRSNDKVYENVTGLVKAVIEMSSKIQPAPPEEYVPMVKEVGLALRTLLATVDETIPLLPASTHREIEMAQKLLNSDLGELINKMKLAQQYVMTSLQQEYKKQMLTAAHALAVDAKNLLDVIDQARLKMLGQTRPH

This assay concerns the target T1, PTK2 (Homo sapiens, UniProt Q05397).
T1 construct: purchased Invitrogen PV3832
Briefly: PTK2 enzyme test Assay 2 (DELFIA, poly-Glu-Tyr substrate, PT66 antibody). The settings on record: Assay 2 (values marked *); 1 h pre-incubation, 50 μM ATP mix, final DMSO 0.5%. Type of assay: biochemical. The text has this:
This test uses active PTK2 enzyme (Invitrogen Code PV3832) and poly-Glu-Tyr (4:1, Sigma P-0275) as the kinase substrate. The kinase activity is detected by means of the phosphorylation of the substrate in a DELFIA™ assay. The phosphorylated substrate is detected with the europium-labelled phosphotyrosine antibody PT66 (Perkin Elmer, No.: AD0040).
In order to determine concentration-activity curves with PTK2-inhibitors the compounds are serially diluted first of all in 100% DMSO and then in kinase dilution buffer (20 mM TRIS/HCl pH 7.5, 0.1 mM EDTA, 0.1 mM EGTA, 0.286 mM sodium orthovanadate, 10% glycerol with the addition of freshly prepared BSA (fraction V, 1 mg/mL) and DTT (1 mM)) and 10 μL of each dilution are dispensed per well in a 96-well microtitre plate (clear U-shaped base plate, Greiner No. 650101) (the inhibitors are tested in duplicates) and mixed with 10 μL/well of PTK2 kinase (0.01 μg/well). PTK2 kinase is diluted accordingly beforehand with kinase dilution buffer. The diluted PTK2 inhibitor and the PTK2 kinase are pre-incubated for 1 h at RT and shaken at 500 revolutions per min. Then 10 μL/well poly-Glu-Tyr substrate (25 μg/well poly-Glu-Tyr, 0.05 μg/well biotinylated poly-Glu-Tyr dissolved in 250 mM TRIS/HCl pH 7.5, 9 mM DTT) are added. The reaction is started by the addition of 20 μL of ATP Mix (30 mM TRIS/HCl pH 7.5, 0.02% Brij, 0.2 mM sodium orthovanadate, 10 mM magnesium acetate, 0.1 mM EGTA, 1× phosphatase inhibitor cocktail 1 (Sigma, No.: P2850), 50 μM ATP (Sigma, No.: A3377; 15 mM stock solution))—the final concentration of DMSO is 0.5%. After 1 h kinase reaction (the plates are shaken at 500 rpm), the reaction is stopped by the addition of 12 μL/well of 100 mM EDTA, pH 8, and shaken for a further 5 min at RT (500 U/min). 55 μL of the reaction mixture are transferred into a streptavidin plate (Strepta Well High Bind (transparent, 96-well) made by Roche, No.: 11989685001) and incubated for 1 h at RT (shaking at 500 rpm). Then the microtitre plate is washed five times with 200 μL/well D-PBS (Invitrogen, No. 14190). 100 μL of a solution containing DELFIA Eu-N1 Anti-Phosphotyrosine PT66 antibody (Perkin Elmer, No.: AD0040, diluted 1:9000 in DELFIA test buffer (Perkin Elmer, No.: 1244-111)) is then added and it is incubated for 1 h at RT (shaking at 500 rpm). Then the plate is washed five times with 200 μL/well DELFIA washing buffer (Perkin Elmer, No.: 1244-114), 200 μL/well strengthening solution (Perkin Elmer, No.: 1244-105) is added and the whole is incubated for 10 min at RT (shaking at 300 rpm).
The time-delayed europium fluorescence is then measured in a microtitre plate reader (VICTOR^3, Perkin Elmer). The positive control consists of wells that contain solvent (0.5% DMSO in test buffer) and display uninhibited kinase activity. Wells that contain test buffer instead of enzyme act as a control for the background kinase activity.
The IC50 values are determined from concentration-activity analyses by iterative calculation using a sigmoid curve analysis algorithm (FIFTY, based on GraphPAD Prism Version 3.03) with a variable Hill coefficient.
The molecule `COc1ccc(C(=O)NC2CCN(C)CC2)cc1Nc1ncc(C(F)(F)F)c(N[C@@H]2Cc3ccccc3[C@H]2N(C)S(C)(=O)=O)n1` [Example I-69] gave an IC50 of 0.37 nM.

In turn, `COc1cc(NC(=O)C2CCN(C)C2)ccc1Nc1ncc(C(F)(F)F)c(N[C@@H]2Cc3ccccc3[C@H]2N(C)S(C)(=O)=O)n1` (stereo partly drawn) [Example I-72] displayed an IC50 of 0.74 nM.

In turn, `COc1cc(NC(=O)C2CCN(C)CC2)ccc1Nc1ncc(C(F)(F)F)c(N[C@@H]2Cc3ccccc3[C@H]2N(C)S(C)(=O)=O)n1` [Example I-73, 1-methyl-piperidine-4-carboxylic acid (4-{4-[(1R,2R)-1-(methanesulphonyl-methyl-amino)-indan-2-ylamino]-5-trifluoromethyl-pyrimidin-2-ylamino}-3-methoxy-phenyl)-amide] showed an IC50 of 0.48 nM.

`COc1cc(N2CCNCC2)c(C)cc1Nc1ncc(C(F)(F)F)c(N[C@@H]2Cc3ccccc3[C@H]2N(C)S(C)(=O)=O)n1` [Example I-74, N-{(1R,2R)-2-[2-(2-methoxy-5-methyl-4-piperazin-1-yl-phenylamino)-5-trifluoromethyl-pyrimidin-4-ylamino]-indan-1-yl}-N-methyl-methanesulphonamide] came in with a half-maximal inhibitory concentration (IC50) of 0.66 nM.

`COc1cc(F)c(C(=O)NC2CCN(C)CC2)cc1Nc1ncc(Cl)c(N[C@@H]2Cc3ccccc3[C@H]2N(C)S(C)(=O)=O)n1` [Example I-75, 5-{5-chloro-4-[(1R,2R)-1-(methanesulphonyl-methyl-amino)-indan-2-ylamino]-pyrimidin-2-ylamino}-2-fluoro-4-methoxy-N-(1-methyl-piperidin-4-yl)-benzamide] displayed a concentration for half-maximal inhibition (IC50) of 0.3 nM.

`COc1cc(N2CCNCC2)c(Cl)cc1Nc1ncc(C(F)(F)F)c(N[C@@H]2Cc3ccccc3[C@H]2N(C)S(C)(=O)=O)n1` [Example I-76, N-{(1R,2R)-2-[2-(5-chloro-2-methoxy-4-piperazin-1-yl-phenylamino)-5-trifluoromethyl-pyrimidin-4-ylamino]-indan-1-yl}-N-methyl-methanesulphonamide] returned an IC50 of 0.76 nM.

The molecule `COc1cc(N2CCN(C)CC2)c(C)cc1Nc1ncc(C(F)(F)F)c(N[C@@H]2Cc3ccccc3[C@H]2N(C)S(C)(=O)=O)n1` [Example I-77] came in with an IC50 of 0.56 nM.

`COc1cc(N2CCN(C(C)(C)C)CC2)c(C)cc1Nc1ncc(C(F)(F)F)c(N[C@@H]2Cc3ccccc3[C@H]2N(C)S(C)(=O)=O)n1` [Example I-78, N-((1R,2R)-2-{2-[4-(4-tert-butyl-piperazin-1-yl)-2-methoxy-5-methyl-phenylamino]-5-trifluoromethyl-pyrimidin-4-ylamino}-indan-1-yl)-N-methyl-methanesulphonamide] displayed an IC50 of 0.83 nM.

Turning to `COc1cc(NC(=O)N(C)C)ccc1Nc1ncc(C(F)(F)F)c(N[C@@H]2Cc3ccccc3[C@H]2N(C)S(C)(=O)=O)n1` [Example I-79], half-maximal inhibition (IC50) was put at 0.23 nM.

`COc1cc(F)c(C(=O)NC2CCN(C)CC2)cc1Nc1ncc(C(F)(F)F)c(N[C@@H]2Cc3ccccc3[C@H]2N(C)S(C)(=O)=O)n1` [Example I-80, 2-fluoro-5-{4-[(1R,2R)-1-(methanesulphonyl-methyl-amino)-indan-2-ylamino]-5-trifluoromethyl-pyrimidin-2-ylamino}-4-methoxy-N-(1-methyl-piperidin-4-yl)-benzamide] displayed an IC50 of 0.36 nM.

For `COc1ccc(C(=O)N(C)C2CCN(C)CC2)cc1Nc1ncc(C(F)(F)F)c(N[C@@H]2Cc3ccccc3[C@H]2N(C)S(C)(=O)=O)n1` [Example I-81], 0.43 nM corresponded to half-maximal inhibition (IC50).

Molecule `COc1cc(C)c(C(=O)NC2CCOCC2)cc1Nc1ncc(C(F)(F)F)c(N[C@@H]2Cc3ccccc3[C@H]2N(C)S(C)(=O)=O)n1` [Example I-82] had an IC50 of 0.36 nM.

The molecule `COc1cc(C(=O)NN2CCN(C)CC2)ccc1Nc1ncc(C(F)(F)F)c(N[C@@H]2Cc3ccccc3[C@H]2N(C)S(C)(=O)=O)n1` [Example I-83] returned an IC50 of 0.47 nM.

`COc1ccc(C(=O)N(C)CCN2CCCC2)cc1Nc1ncc(C(F)(F)F)c(N[C@@H]2Cc3ccccc3[C@H]2N(C)S(C)(=O)=O)n1` [Example I-85] yielded an IC50 of 0.44 nM.

The molecule `COc1cc(N2CCN(C)CC2=O)ccc1Nc1ncc(C(F)(F)F)c(N[C@@H]2Cc3ccccc3[C@H]2N(C)S(C)(=O)=O)n1` [Example I-86] gave a half-maximal inhibitory concentration (IC50) of 0.31 nM.

For `COc1cc(N2CCNCC2=O)ccc1Nc1ncc(C(F)(F)F)c(N[C@@H]2Cc3ccccc3[C@H]2N(C)S(C)(=O)=O)n1` [Example I-87], the IC50 was 0.48 nM.

`CN1CCC(NC(=O)c2cccc(Nc3ncc(C(F)(F)F)c(N[C@@H]4Cc5ccccc5[C@H]4N(C)S(C)(=O)=O)n3)c2)CC1` [Example I-88] came in with an IC50 of 0.26 nM.

`CCc1cc(Nc2ncc(C(F)(F)F)c(N[C@@H]3Cc4ccccc4[C@H]3N(C)S(C)(=O)=O)n2)c(OC)cc1N1CCN(C(C)(C)C)CC1` [Example I-89] gave a 50% inhibitory concentration (IC50) of 0.68 nM.

Regarding `COc1cc(N2CCN(C(C)(C)C)CC2)ccc1Nc1ncc(C(F)(F)F)c(N[C@@H]2Cc3ccccc3[C@H]2NS(C)(=O)=O)n1` [Example I-91], the IC50 came to 0.75 nM.

For the molecule `COc1ccc(C(=O)NC2CCN(C)CC2)cc1Nc1ncc(Cl)c(N[C@@H]2Cc3ccccc3[C@H]2N(C)S(C)(=O)=O)n1` [Example I-93], the midpoint of inhibition, the IC50, lay at 0.6 nM.

`COc1cc(C(=O)NCCN(C)C)ccc1Nc1ncc(C(F)(F)F)c(N[C@@H]2CCc3ccccc3[C@H]2N(C)S(C)(=O)=O)n1` [Example I-94] had an IC50 of 16 nM.
